Results as given in US20260232661A1, “Compositions and Uses Thereof” (Purposeful IKE, priority 2020, published 2026).
Where “and” joins values, the source holds several entries; their conditions need not be identical. Identical values can stand only once.

What was measured:
Type in all cases: in vivo
[1] = system: Fmr1 KO mice; test: Open field test (hyperactivity)
Procedure: (§1) Fmr1 KO mice backcrossed to the FVB strain and WT littermates were used during experiments. TransnetXY Automated Genotyping (www.transnetyx.com/). TRANSNETYX, INC., 8110 Cordova Rd. Suite 119, Cordova, TN 38016, USA was used for genotyping. The animals were pretreated for 14 days. The active ingredients of Sumatriptan and Ergoloid were in a water carrier, whereas oxitriptan was in a methanol carrier.
(§2) The mice were housed in plastic cages (35×30×12 cm), 5 in each. The room temperature (21±2° C.), relative humidity (55±5%), a 12-h light-dark cycle (lights on 7 a.m.-7 p.m.) and air exchange (16 times per h) were automatically controlled. The animals had free access to commercial food pellets and water. Testing was conducted during the light phase. Ten mice per treatment group were used for the AGS experiments. Experiments were conducted in line with the requirements of the UK Animals (Scientific Procedures) Act, 1986.
(§3) All experiments were conducted with the experimenter blind to genotype and drug treatment. Separate investigators prepared and coded dosing solutions, allocated the mice to the study treatment groups, dosed the animals, and collected the Audiogenic Seizure data.
(§4) Behavior testing was conducted at 2 weeks. The behavioral tests were as follows: 1. Hyperactivity: Open field; 2. Stereotypy: Self-grooming; 3. Sociability: Three chamber partition test; 4. Memory and Learning: Novel Object Recognition; 5. Anxiety: hyponeophagia; and 6. Test of daily living: marble burying
For hyperactivity, the open field test (OFT) is a common measure of exploratory behavior and general activity in both mice and rats, where both the quality and quantity of the activity can be measured. Principally, the open field (OF) is an enclosure, generally square, rectangular, or circular in shape with surrounding walls that prevent escape. The OFT is also commonly used as a mechanism to assess the sedative, toxic, or stimulant effects of compounds (Gould 2009).
(§5) The treatment of the mice with OX (Oxitriptan), SU (Sumatriptan), ER (Ergoloid mesylates, also referred to as ergoloid herein) were according to the matrix shown below in Table 1.
(§6) The experimental procedures described above for Example 1 were used in the following tests, as well as the addition of two further behaviour tests as described below. An SSRI (selective serotonin re-uptake inhibitor) was co-dosed with the ergoloid mesylates and oxitriptan to assess the effect of the ergoloid mesylates and oxitriptan treatment on a subject already receiving SSRI treatment.
(§7) The treatment of the mice with OX (Oxitriptan), ER (Ergoloid mesylates) and FL (fluvoxamine) were according to the matrix shown below in Table 21. The triple combination involved dosing of 2 mg/kg ergoloid mesylates, 40 mg/kg oxitriptan and 40 mg/kg of fluvoxamine (the SSRI).

[2] = system: Fmr1 KO mice; test: Self-grooming (stereotypy); details: Dunnett's test, alpha 0.05; doses as E31
Procedure: as §1, §2, §3
Behavior testing was conducted at 2 weeks. The behavioral tests were as follows: 1. Hyperactivity: Open field; 2. Stereotypy: Self-grooming; 3. […]
For stereotypy, self-grooming was assessed. […]

[3] = system: Fmr1 KO mice; test: Novel Object Recognition (memory and learning); set-up: Mean Diff., N_WT-V vs. treated KO (NOR) / Mean 2, treated KO group (NOR) / Mean Diff., F_KO-V vs. F_KO treated (NOR) / Mean Diff., F_KO-V vs. N_KO treated (NOR) / Mean 2, F_KO treated group (NOR) / Mean 2, N_KO treated group (NOR): unit not given here
Procedure: as §1, §2, §3, §4
For memory and learning, a novel object recognition (NOR) task was used to evaluate the rodents' ability to recognize a novel object in the environment. […] The task procedure consists of three phases: habituation, familiarization, and test phase (Antunes 2012).
(§8) The treatment of the mice with OX (Oxitriptan), SU (Sumatriptan), ER (Ergoloid mesylates, also referred to as ergoloid herein) were according to the matrix shown below in Table 1. […]

[4] = system: Fmr1 KO mice; test: Three chamber partition test (sociability); set-up: Mean Diff., N_WT-V vs. treated KO (Sociability) / Mean 2, treated KO group (Sociability) / Mean Diff., F_KO-V vs. F_KO treated (Sociability) / Mean Diff., F_KO-V vs. N_KO treated (Sociability) / Mean 2, F_KO treated group (Sociability) / Mean 2, N KO treated group (Sociability) / Mean 2, N_KO treated group (Sociability) / Data table Sociability, F_KO-Sumatriptan / Data table Sociability, N_KO-Sumatriptan / Data table Sociability, F_KO-Oxitriptan: unit not given here
Procedure: as §1, §2, §3, §4
For sociability a three chamber partition test was utilized. The three-chamber paradigm test known as Crawley's sociability and preference for social novelty protocol has previously been successfully employed to study social affiliation and social memory in several inbred and mutant mouse lines. The main principle of the test was based on the free choice by a subject mouse to spend time in any of three box's compartments during two experimental sessions, including indirect contact with one or two mice with which it was unfamiliar (Kaidanovich-Beilin 2011).
as §8

[5] = system: Fmr1 KO mice; test: Hyponeophagia test (anxiety)
Procedure: as §1, §2, §3, §4
For anxiety a hyponeophagia test was conducted. Mice and rats cannot vomit, due to the tightness of the cardiac sphincter of the stomach, so to overcome the problem of potential food toxicity they have evolved a strategy of first ingesting only very small amounts of novel substances. The amounts ingested then gradually increase until the animal has determined whether the substance is safe and nutritious. So the old rat-catchers would first put a palatable substance such as oatmeal, which was to be the vehicle for the toxin, in the infested area (Deacon 2011).
as §5, §6, §7

[6] = system: Fmr1 KO mice; test: Test of daily living (nesting; marble burying)
Procedure: as §1, §2, §3, §4
For test of daily living, nesting was assessed as nest building is an innate behavior in rodents, even when raised in laboratory settings. Synthetic and/or natural materials (such as twine, tissue, cotton, paper, and hay) are provided as a gauge of their overall well-being and as an ancillary assessment to predict the possible decline in cognition. Typically, changes in nesting behaviors, such as failure to create a nest, indicate a change in health or welfare. In addition, nesting behavior is sensitive to many environmental and physiological challenges, as well as many genetic mutations underlying pathological disease states (Gaskill 2013).
as §5, §6, §7

[7] = F_ groups, mg/kg: Sumatriptan 20, Oxitriptan 40, Ergoloid 4, Ergoloid 2+Oxitriptan 40 (Column M)
[8] = F_, KO mice, Sumatriptan 20 mg/kg, individual animals
[9] = N_ groups, mg/kg: Sumatriptan 20, Oxitriptan 40, Ergoloid 4, Ergoloid 2+Oxitriptan 40
[10] = N_ groups, mg/kg: Sumatriptan 20, Oxitriptan 40, Ergoloid 4, F_KO Ergoloid 2+Sumatriptan 10, N_KO Ergoloid 2+Oxitriptan 40
[11] = KO mice, mg/kg: Sumatriptan 20, Oxitriptan 40, Ergoloid 4, Ergoloid 2+Sumatriptan 10, Ergoloid 2+Oxitriptan 40

**Q.** CNS(=O)(=O)Cc1ccc2[nH]cc(CCN(C)C)c2c1 [Sumatriptan] was tested. Which “Below threshold? WT-V vs. treated KO (Open Field)” value ([1]; Dunnett's test, alpha 0.05, doses as E1) did it give?
**A.** The value was “Yes”.

**Q.** What about the “Significant? KO-V vs. treated KO (Open Field)” value ([1]; Dunnett's test, alpha 0.05, doses as E26) of the same compound?
**A.** The value was “Yes”.

**Q.** What about the “Mean Diff., KO-V vs. treated KO (Open Field)” value ([1]; KO mice, mg/kg: Sumatriptan 20, Oxitriptan 80, Ergoloid 4, Ergoloid 2+Oxitriptan 40) of the same compound?
**A.** The value was 846.8.

**Q.** And the “Significant? KO-V vs. treated KO (Stereotypy)” value [2]?
**A.** The value was “Yes”.

**Q.** And the “Significant? F_KO-V vs. F_KO treated (NOR)” value ([3]; Dunnett's test, alpha 0.05, F_ groups, doses as E46)?
**A.** The value was “No”.

**Q.** And the “Significant? F_KO-V vs. N_KO treated (NOR)” value ([3]; Dunnett's test, alpha 0.05, N_ groups, doses as E51)?
**A.** Its value is “No”.

**Q.** And the “Significant? N_WT-V vs. treated KO (NOR)” value ([3]; Dunnett's test, alpha 0.05, groups and doses as E16)?
**A.** Its value is “Yes”.

**Q.** And the “Summary, F_KO-V vs. F_KO treated (NOR)” value ([3]; Dunnett's test, F_ groups, doses as E46)?
**A.** Its value is “ns”.

**Q.** And the “Summary, F_KO-V vs. N_KO treated (NOR)” value ([3]; Dunnett's test, N_ groups, doses as E51)?
**A.** The value was “ns”.

**Q.** What about the “Mean Diff., F_KO-V vs. F_KO treated (NOR)” value [3, 7] of the same compound?
**A.** The value was −0.2000.

**Q.** And the “Data table Novel Object Recognition, F_KO-Sumatriptan” value [3, 8]?
**A.** Its value is 6.

**Q.** And the “Mean Diff., F_KO-V vs. N_KO treated (NOR)” value [3, 9]?
**A.** The value was −0.7000.

**Q.** And the “Mean Diff., N_WT-V vs. treated KO (NOR)” value [3, 10]?
**A.** Its value is 6.600.

**Q.** And the “Mean 2, F_KO treated group (NOR)” value ([3]; comparison against F_KO-V, doses as E46)?
**A.** Its value is 5.800.

**Q.** What about the “Mean 2, N_KO treated group (NOR)” value ([3]; comparison against F_KO-V, doses as E51) of the same compound?
**A.** Its value is 7.300.

**Q.** And the “Mean 2, treated KO group (NOR)” value ([3]; comparison against N_WT-V, groups and doses as E16)?
**A.** Its value is 7.300.

**Q.** What about the “Significant? F_KO-V vs. F_KO treated (Sociability)” value ([4]; Dunnett's test, alpha 0.05, F_ groups, doses as E56) of the same compound?
**A.** Its value is “Yes”.

**Q.** What about the “Significant? F_KO-V vs. N_KO treated (Sociability)” value ([4]; Dunnett's test, alpha 0.05, N_ groups, doses as E61) of the same compound?
**A.** Its value is “Yes”.

**Q.** And the “Significant? N_WT-V vs. treated KO (Sociability)” value ([4]; Dunnett's test, alpha 0.05, groups and doses as E21)?
**A.** The value was “No”.

**Q.** What about the “Summary, N_WT-V vs. treated KO (Sociability)” value ([4]; Dunnett's test, groups and doses as E21) of the same compound?
**A.** The value was “ns”.

**Q.** What about the “Mean Diff., F_KO-V vs. F_KO treated (Sociability)” value [4, 7] of the same compound?
**A.** Its value is 19.40.

**Q.** What about the “Data table Sociability, F_KO-Sumatriptan” value [4, 8] of the same compound?
**A.** The value was 61 (2×) and 64 and 65 (2×) and 60 (3×) and 63 (2×).

**Q.** What about the “Data table Sociability, N_KO-Sumatriptan” value ([4]; KO mice, Sumatriptan 20 mg/kg, individual animals) of the same compound?
**A.** The value was 99 and 97 (2×) and 103 and 98 and 90 and 102 and 100 and 95 and 101.

**Q.** What about the “Mean Diff., F_KO-V vs. N_KO treated (Sociability)” value [4, 9] of the same compound?
**A.** Its value is −16.80.

**Q.** What about the “Mean Diff., N_WT-V vs. treated KO (Sociability)” value [4, 10] of the same compound?
**A.** Its value is 0.9000.

**Q.** And the “Mean 2, F_KO treated group (Sociability)” value ([4]; comparison against F_KO-V, doses as E56)?
**A.** The value was 62.20.

**Q.** What about the Mean 2, N KO treated group (Sociability) ([4]; comparison against F_KO-V, doses as E61) of the same compound?
**A.** The Mean 2, N KO treated group (Sociability) was 98.2.

**Q.** What about the “Mean 2, treated KO group (Sociability)” value ([4]; comparison against N_WT-V, groups and doses as E21) of the same compound?
**A.** Its value is 98.20.

**Q.** What about the “Significant? WT-V vs. treated KO (Hyponeophagia)” value ([5]; Dunnett's test, alpha 0.05, doses as E6) of the same compound?
**A.** Its value is “Yes”.

**Q.** What about the “Significant? KO-V vs. treated KO (Hyponeophagia)” value ([5]; Dunnett's test, alpha 0.05, doses as E36) of the same compound?
**A.** Its value is “Yes”.

**Q.** And the “Mean Diff., WT-V vs. treated KO (Hyponeophagia)” value [5, 11]?
**A.** The value was −9.200.

**Q.** And the “Significant? WT-V vs. treated KO (Test of daily living)” value ([6]; Dunnett's test, alpha 0.05, doses as E11)?
**A.** Its value is “No”.

**Q.** What about the “Significant? KO-V vs. treated KO (Test of daily living)” value ([6]; Dunnett's test, alpha 0.05, doses as E41) of the same compound?
**A.** Its value is “Yes”.

**Q.** And the “Summary, WT-V vs. treated KO (Test of daily living)” value ([6]; Dunnett's test, doses as E11)?
**A.** The value was “ns”.

**Q.** And the “Mean Diff., WT-V vs. treated KO (Test of daily living)” value [6, 11]?
**A.** The value was 0.1000.

**Q.** And the “Mean 2, treated KO group (Test of daily living)” value ([6]; comparison against KO-V, doses as E41)?
**A.** The value was 4.700.

**Q.** And the “Mean 2, treated KO group (Test of daily living)” value ([6]; comparison against WT-V, doses as E11)?
**A.** Its value is 4.700.
